Among the data in patent publication US20100292266A1, “Oxazolyl Piperidine Modulators of Fatty Acid Amide Hydrolase” (priority 2006, published 2010) are IC50 values, retold here.

Where only a bound is given, the exact number is not on record here.

One assay addresses T1, FAAH (Homo sapiens, UniProt O00519).
T1 sequence (O00519 1-579): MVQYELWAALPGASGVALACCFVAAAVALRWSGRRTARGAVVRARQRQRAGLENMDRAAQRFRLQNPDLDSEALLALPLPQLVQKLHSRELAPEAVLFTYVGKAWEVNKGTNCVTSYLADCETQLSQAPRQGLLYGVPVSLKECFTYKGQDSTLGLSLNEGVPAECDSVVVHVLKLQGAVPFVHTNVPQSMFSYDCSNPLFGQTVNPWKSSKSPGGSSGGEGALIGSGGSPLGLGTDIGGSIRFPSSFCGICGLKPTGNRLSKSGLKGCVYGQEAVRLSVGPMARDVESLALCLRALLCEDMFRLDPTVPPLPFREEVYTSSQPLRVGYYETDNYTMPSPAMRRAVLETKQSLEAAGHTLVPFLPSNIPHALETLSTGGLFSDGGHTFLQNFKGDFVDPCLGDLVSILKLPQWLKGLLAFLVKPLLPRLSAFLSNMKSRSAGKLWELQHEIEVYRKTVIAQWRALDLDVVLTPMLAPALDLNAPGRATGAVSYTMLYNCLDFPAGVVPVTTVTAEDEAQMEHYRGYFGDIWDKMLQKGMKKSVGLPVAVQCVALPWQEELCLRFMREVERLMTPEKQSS
As to the kind of experiment: Assay Method 1: FAAH assay, 3H-anandamide hydrolysis in cell homogenate. The format is biochemical. To be noted: T84 or transfected SK-N-MC cell homogenate, 80 nM 3H-AEA, 1 h rt, > = solubility limit or highest concentration tested. Also noted: expressed in transfected cells. The protocol:
A. Transfection of Cells with Human FAAH
(§1) A 10-cm tissue culture dish with a confluent monolayer of SK-N-MC cells was split 2 days (d) prior to transfection. Using sterile technique, the media was removed and the cells were detached from the dish by the addition of trypsin. One fifth of the cells were then placed onto a new 10-cm dish. Cells were grown in a 37° C. incubator with 5% CO2 in Minimal Essential Media Eagle with 10% Fetal Bovine Serum. After 2 d, cells were approximately 80% confluent. These cells were removed from the dish with trypsin and pelleted in a clinical centrifuge. The pellet was re-suspended in 400 μL complete media and transferred to an electroporation cuvette with a 0.4 cm gap between the electrodes. Supercoiled human FAAH cDNA (1 μg) was added to the cells and mixed. The voltage for the electroporation was set at 0.25 kV, and the capacitance was set at 960 μF. After electroporation, the cells were diluted into complete media (10 mL) and plated onto four 10-cm dishes. Because of the variability in the efficiency of electroporation, four different concentrations of cells were plated. The ratios used were 1:20, 1:10, and 1:5, with the remainder of the cells being added to the fourth dish. The cells were allowed to recover for 24 h before adding the selection media (complete media with 600 μg/mL G418). After 10 d, dishes were analyzed for surviving colonies of cells. Dishes with well-isolated colonies were used. Cells from individual colonies were isolated and tested.
(§2) The assay mixture consisted of 50 μL of the cell homogenate, 10 μL of the test compound, and 40 μL of anandamide [1-^3H-ethanolamine] (^3H-AEA, Perkin-Elmer, 10.3 Ci/mmol), which was added last, for a final tracer concentration of 80 nM. The reaction mixture was incubated at rt for 1 h. During the incubation, 96-well Multiscreen filter plates (catalog number MAFCNOB50; Millipore, Bedford, Mass., USA) were loaded with 25 μL of activated charcoal (Multiscreen column loader, catalog number MACL09625, Millipore) and washed once with 100 μL of MeOH. Also during the incubation, 96-well DYNEX MicroLite plates (catalog number NL510410) were loaded with 100 μL of MicroScint40 (catalog number 6013641, Packard Bioscience, Meriden, Conn., USA). After the 1 h incubation, 60 μL of the reaction mixture were transferred to the charcoal plates, which were then assembled on top of the DYNEX plates using Centrifuge Alignment Frames (catalog number MACF09604, Millipore). The unbound labeled ethanolamine was centrifuged through to the bottom plate (5 min at 2000 rpm), which was preloaded with the scintillant, as described above. The plates were sealed and left at rt for 1 h before counting on a Hewlett Packard TopCount.
(§3) Where activity is shown as greater than (>) a particular value, the value is the solubility limit of the compound in the assay medium or the highest concentration tested in the assay.

The target of another assay is T2, Rat FAAH (Rattus norvegicus, UniProt P97612).
T2 construct: expressed in transfected cells
T2 sequence (P97612 1-579): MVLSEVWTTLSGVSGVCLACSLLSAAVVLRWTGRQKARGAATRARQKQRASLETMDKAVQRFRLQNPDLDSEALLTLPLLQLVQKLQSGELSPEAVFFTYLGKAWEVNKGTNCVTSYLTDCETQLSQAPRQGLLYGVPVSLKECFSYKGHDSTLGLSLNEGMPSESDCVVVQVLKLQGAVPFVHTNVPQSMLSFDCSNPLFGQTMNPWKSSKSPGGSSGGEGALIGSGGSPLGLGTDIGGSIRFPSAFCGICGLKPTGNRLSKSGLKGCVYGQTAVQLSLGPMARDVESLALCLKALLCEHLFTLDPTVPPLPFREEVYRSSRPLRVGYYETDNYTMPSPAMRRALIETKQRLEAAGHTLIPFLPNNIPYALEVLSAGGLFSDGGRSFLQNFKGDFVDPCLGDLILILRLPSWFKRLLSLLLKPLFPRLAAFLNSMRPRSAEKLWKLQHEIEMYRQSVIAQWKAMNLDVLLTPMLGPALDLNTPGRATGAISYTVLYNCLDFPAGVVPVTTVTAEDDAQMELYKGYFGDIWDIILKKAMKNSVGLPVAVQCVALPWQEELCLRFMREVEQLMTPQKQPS
As to the kind of experiment: Assay Method 2: FAAH assay, 3H-anandamide hydrolysis in cell homogenate. The assay is classed as biochemical. The following applies: transfected SK-N-MC cell homogenate, 80 nM 3H-AEA, 1 h rt, > = solubility limit or highest concentration tested. As to the method: A. Transfection of Cells with Rat FAAH
as §1, with “rat” for “human”
as §2, with “incubated at […] for 1” for “incubated at rt for 1”, “labeled ethanolamine . was centrifuged” for “labeled ethanolamine was centrifuged”
as §3

One may read the IC50 as the concentration needed to halve the response being measured. Consider `COc1ccc(CN2CCC(C(=O)c3ncco3)CC2)cc1OC` [Example 43, [1-(3,4-Dimethoxy-benzyl)-piperidin-4-yl]-oxazol-2-yl-methanone], for which the figures for the IC50 on FAAH and on Rat FAAH were 3000 nM and 6000 nM, respectively.

As to `O=C(c1ncco1)C1CCN(Cc2ccc3ccccc3c2O)CC1` [Example 47, [1-(1-Hydroxy-naphthalen-2-ylmethyl)-piperidin-4-yl]-oxazol-2-yl-methanone], the IC50 was determined as 4 nM at FAAH and 7 nM against Rat FAAH.

Consider `COc1ccc2cc(CN3CCC(C(=O)c4ncco4)CC3)c(Cl)nc2c1` [Example 68, [1-(2-Chloro-7-methoxy-quinolin-3-ylmethyl)-piperidin-4-yl]-oxazol-2-yl-methanone], for which the IC50 against FAAH worked out at 294 nM; on Rat FAAH it was 511 nM.

As to `O=C(c1ncco1)C1CCN(Cc2ccc(Br)cc2F)CC1` [Example 27, [1-(4-Bromo-2-fluoro-benzyl)-piperidin-4-yl]-oxazol-2-yl-methanone], the IC50 came to 11 nM at FAAH and 75 nM on Rat FAAH.

For `O=C(c1ncco1)C1CCN(Cc2ccccc2F)CC1` [Example 32, [1-(2-Fluoro-benzyl)-piperidin-4-yl]-oxazol-2-yl-methanone], the IC50 against FAAH was 1500 nM; against Rat FAAH it was over 10000 nM.

Regarding `O=C(c1ncco1)C1CCN(Cc2cccc(Br)c2)CC1` [Example 52, [1-(3-Bromo-benzyl)-piperidin-4-yl]-oxazol-2-yl-methanone], the values for the 50% inhibitory concentration (IC50) at FAAH and against Rat FAAH were 35 nM and 200 nM, respectively.

As for `O=C(c1ncco1)C1CCN(Cc2cccc3ccccc23)CC1` [Example 48, (1-Naphthalen-1-ylmethyl-piperidin-4-yl)-oxazol-2-yl-methanone], the IC50 at FAAH turned out to be 101 nM; against Rat FAAH it was 63 nM.

`O=C(c1ncco1)C1CCN(Cc2cnc3ccccc3n2)CC1` [Example 78, Oxazol-2-yl-(1-quinoxalin-2-ylmethyl-piperidin-4-yl)-methanone]: the IC50 against FAAH stood at 30 nM; on Rat FAAH, 90 nM.

With `O=C(c1ncco1)C1CCN(Cc2cccc(OC3CCCCC3)c2)CC1` [Example 22, [1-(3-Cyclohexyloxy-benzyl)-piperidin-4-yl]-oxazol-2-yl-methanone], the IC50 at FAAH is 12 nM; against Rat FAAH it was 790 nM.

Consider `CS(=O)(=O)c1cc(Br)ccc1CN1CCC(C(=O)c2ncco2)CC1` [Example 25, [1-(4-Bromo-2-methanesulfonyl-benzyl)-piperidin-4-yl]-oxazol-2-yl-methanone], for which the values for the IC50 on FAAH and against Rat FAAH were 13 nM and 23 nM, respectively.

`O=C(c1ncco1)C1CCN(Cc2ccc(Cl)cc2)CC1` [Example 35, [1-(4-Chloro-benzyl)-piperidin-4-yl]-oxazol-2-yl-methanone]: the IC50 on FAAH was found to be 19 nM; on Rat FAAH it was 40 nM.

With `O=C(c1ncco1)C1CCN(S(=O)(=O)c2ccc3ccccc3c2)CC1` [Example 1, [1-(Naphthalene-2-sulfonyl)-piperidin-4-yl]-oxazol-2-yl-methanone], the IC50 turned out to be 100 nM on FAAH and 1000 nM at Rat FAAH.

For `O=C(c1ncco1)C1CCN(Cc2ccc(Cl)nc2)CC1` [Example 82, [1-(6-Chloro-pyridin-3-ylmethyl)-piperidin-4-yl]-oxazol-2-yl-methanone], the IC50 at FAAH was determined as 125 nM; against Rat FAAH, 650 nM.

Turning to `O=C(c1ncco1)C1CCN(S(=O)(=O)c2cccc(Cl)c2)CC1` [Example 5, [1-(3-Chloro-benzenesulfonyl)-Diperidin-4-yl]-oxazol-2-yl-methanone], the IC50 against FAAH and at Rat FAAH was 8000 nM each time.

For `CN(C)c1nc2ccccc2cc1CN1CCC(C(=O)c2ncco2)CC1` [Example 72, [1-(2-Dimethylamino-quinolin-3-ylmethyl)-piperidin-4-yl]-oxazol-2-yl-methanone], the half-maximal inhibitory concentration (IC50) against FAAH came out at 46 nM; against Rat FAAH, 38 nM.

Regarding `O=C(c1ncco1)C1CCN(Cc2ccc3ccccc3c2)CC1` [Example 88, (1-Naphthalen-2-ylmethyl-piperidin-4-yl)-oxazol-2-yl-methanone], the values for the half-maximal inhibitory concentration (IC50) against FAAH and against Rat FAAH were 4 nM and 9 nM, respectively.

Consider `O=C(c1ncco1)C1CCN(Cc2cc3ccccc3s2)CC1` [Example 54, (1-Benzo[b]thoiphen-2-ylmethyl-piperidin-4-yl)-oxazol-2-yl-methanone], for which the results for the IC50 at FAAH and at Rat FAAH were 2 nM and 9 nM, respectively.

Regarding `O=C(c1ncco1)C1CCN(Cc2ccc3cccc(O)c3n2)CC1` [Example 79, [1-(8-Hydroxy-quinolin-2-ylmethyl)-piperidin-4-yl]-oxazol-2-yl-methanone], the IC50 against FAAH is 12 nM; at Rat FAAH, 40 nM.
